Here are results for five compounds from US10849989B2, “Isolated composite drug and carrier nanoparticles” (University of Limerick, priority 2016, dated 2020).

The conditions of data set [1]: isoelectric point; cited from earlier work.
A short description of data set [2]: Particle size analysis by laser diffraction (Malvern Mastersizer 3000). In kind it is physicochemical. The conditions noted are these: water as dispersion medium. On the procedure: Particle size can be determined by laser diffraction, for example using a Malvern Mastersizer 3000.
Particle size measurements were performed by laser diffraction using a Malvern Mastersizer 3000, with water as the dispersion medium. In cases where the particle size was not stable, HPMC and SDS were added to the water dispersant at a concentration of 0.038 mg/mL each to minimise variation between consecutive measurements. Precipitated drug suspensions were diluted by a factor of 5 with water prior to their introduction to the measurement vessel. An MMT control was treated by the conditions used during antisolvent precipitation before measuring its particles size. An obscuration rate of 7-10%, a stir rate of 2300 rpm, a 1 min pre-measurement delay (including 20 sec with 5% sonication power) were the conditions used during all size measurements. A refractive index of 1.55 and an absorption index of 0.01 were used for FF measurements. A refractive index of 1.55 and an absorption index of 0.1 were used for MMT measurements. Four measurements were taken per run and each sample was run twice. The D50 was reported for each size distribution and averaged across all measurements. Measurement variations were also reported.

A short description of data set [3]: Zeta potential determination (electrophoretic light scattering, Malvern Zetasizer Nano ZSP). It counts as physicochemical. The following applies: particles without surface treatment agent, suspension in water, 25° C. The protocol:
Zeta potential can be determined from electrophoretic mobility using the Smoluchowski calculation. The electrophoretic mobility value can be determined at 25° C. by electrophoretic light scattering (ELS), e.g. using a Malvern Zetasizer Nano ZSP system. Such commercially available ELS instrumentation will directly provide zeta potential values. Aqueous suspensions are filled into a folded capillary cell and equilibrated at 25° C. for 120 seconds before measurement. Three measurements are taken per run and each sample is run twice. The average value and the variation between measurements can be reported.
Unless otherwise stated, reference to zeta potential is a reference to the zeta potential of a suspension of the particles in water at neutral pH (pH 7) at standard ambient temperature and pressure (SATP, 25° C. and 100 kPa).
Zetapotential measurements were conducted on a Malvern Zetasizer Nano ZSP system. Zetapotential was determined from the electrophoretic mobility using the Smoluchowski approximation. The samples (without dilution) were filled into a folded capillary cell and equilibrated at 25° C. for 120 s before measurement. Three measurements were taken per run and each sample was run twice. The average value and the variation between measurements were reported.

The nature of data set [4]: Drug loading of nanoparticles on carrier. In kind it is physicochemical. The conditions noted are these: on the PA-MMT carrier (4.6 mg PA/g MMT). From the text: The drug loading in % w/w is the amount of drug in grams per 100 g of functionalised carrier particles. A high drug loading is beneficial for delivering a sufficient dose to a patient. In embodiments the composite has a drug loading of at least 2, 4, 6, 8, 9, 10, 15, 20, 30, 40 or 50% w/w. In embodiments the composite has a drug loading of no more than 100, 90, 80 or 70% w/w.
The drug loading (% w/w) can also be determined by dissolution testing whereby a known mass of dry drug loaded carrier particles is dissolved in a known volume of dissolution media. […] The concentration of drug in the dissolution media is measured by UV/Vis and/or HPLC spectroscopic methods until it stops increasing with time. The mass of drug present on the known mass of drug loaded carrier particles can thus be estimated and the drug loading in (% w/w) can be calculated.
Nanoparticles of both fenofibrate (FF) and mefenamic acid (MEF) were generated by antisolvent precipitation. An organic solution of FF in ethanol (1 mL, 50 mg/mL) was quickly introduced by Eppendorf pipet to 10 mL antisolvent containing (a) water, (b) an MMT suspension in water (50 mg/mL, equilibrated for >2 hrs) or (c) a protamine-modified MMT suspension in water (50 mg/mL, 4.6-189.9 mg PA/g MMT, equilibrated for >2 hrs). Solutions/suspensions were maintained at 25° C. under rapid agitation (800 rpm) throughout the precipitation process. […]

Consider `C[C@H](N)C(=O)O` [Alanine], for which, in data set [1], the pI is 6.00. Consider `Cc1cccc(Nc2ccccc2C(=O)O)c1C` [mefenamic acid], for which, in data set [2], the “particle size D50” value came to 0.84±0.05 μm. Besides, the zeta potential in data set [3] is listed as −35.3 mV. Further, in data set [4], the drug loading amounted to 4.8%.

For Avidin [Avidin (glycoprotein)], in data set [1], the pI is reported as 10.5.

In the case of Galatine B, the pI in data set [1] is 5. Regarding Gelatine A, the pI in data set [1] was 6-9.
